# Measurements from ChEMBL document CHEMBL5214990, “Novel Aryl Alkamidazole Derivatives as Multifunctional Antifungal Inhibitors: Design, Synthesis, and Biological Evaluation” (J Med Chem, 2022).
# pIC50: −log10 of the molar value. The source made the active and inactive calls. The calls are words filed in the database; no cut-off is given here.
# Legend:
# [1] = Increase in intracellular ROS level in Candida albicans assessed as fold increase in fluorescence intensity measured after 12 hrs by fluorescence microscopic analysis relative to control; assay type: functional
# [2] = tested on: Candida albicans; test: Antifungal activity against fluconazole-resistant Candida albicans 901 assessed as inhibition of fungal growth measured after 72 hrs by CLSI based liquid medium dilution method; assay type: functional
# [3] = tested on: Candida albicans; test: Induction of apoptosis in Candida albicans assessed as necrotic cells measured after 24 hrs by Annexin V-FITC/PI staining based flow cytometry (reference value: 3.37%); assay type: functional
# [4] = tested on: Candida albicans; test: Antifungal activity against fluconazole-resistant Candida albicans 904 assessed as inhibition of fungal growth measured after 72 hrs by CLSI based liquid medium dilution method; assay type: functional
# [5] = tested on: Candida albicans; test: Induction of apoptosis in Candida albicans assessed as early apoptotic cells measured after 24 hrs by Annexin V-FITC/PI staining based flow cytometry (reference value: 0.46%); assay type: functional
# [6] = biological target: T1, Lanosterol 14-alpha demethylase (Candida albicans (strain SC5314 / ATCC MYA-2876) (Yeast), UniProt P10613); test: Inhibition of CYP51 in Candida albicans ATCC SC5314 assessed as eburicol content at 4 ug/ml measured after 48 hrs by GC-MS analysis (reference value: 1.84%); set-up: scale not given: the % may be the effect or the level left; conditions: at 4 µg/mL
# T1 sequence (P10613 whole entry): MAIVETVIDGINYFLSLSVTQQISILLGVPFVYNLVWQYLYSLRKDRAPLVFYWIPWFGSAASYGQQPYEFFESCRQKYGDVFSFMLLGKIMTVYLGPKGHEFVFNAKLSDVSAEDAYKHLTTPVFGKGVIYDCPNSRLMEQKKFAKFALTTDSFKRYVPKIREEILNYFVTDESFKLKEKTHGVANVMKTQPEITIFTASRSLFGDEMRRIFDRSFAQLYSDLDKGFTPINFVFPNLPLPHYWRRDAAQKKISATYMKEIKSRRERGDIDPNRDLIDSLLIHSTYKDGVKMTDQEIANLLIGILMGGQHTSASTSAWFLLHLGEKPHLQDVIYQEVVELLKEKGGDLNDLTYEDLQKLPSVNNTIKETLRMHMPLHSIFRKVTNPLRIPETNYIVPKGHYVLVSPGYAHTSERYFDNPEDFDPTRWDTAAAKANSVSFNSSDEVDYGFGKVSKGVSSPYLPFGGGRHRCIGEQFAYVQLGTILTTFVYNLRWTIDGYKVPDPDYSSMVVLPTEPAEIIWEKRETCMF
# [7] = tested on: Candida albicans; test: Antifungal activity against fluconazole-resistant Candida albicans 17# assessed as inhibition of fungal growth measured after 72 hrs by CLSI based liquid medium dilution method; assay type: functional
# [8] = biological target: T1, Lanosterol 14-alpha demethylase; test: Inhibition of CYP51 in Candida albicans ATCC SC5314 assessed as lanosterol content at 4 ug/ml measured after 48 hrs by GC-MS analysis; set-up: scale not given: the % may be the effect or the level left; conditions: at 4 µg/mL
# [9] = biological target: T1, Lanosterol 14-alpha demethylase; test: Inhibition of CYP51 in Candida albicans ATCC SC5314 assessed as reduction in substrate consumption using lanosterol as substrate preincubated for 30 mins followed by substrate addition and measured after 60 mins by HPLC analysis
# [10] = biological target: T2, Prostaglandin G/H synthase 2 (Homo sapiens, UniProt P35354); test: Inhibition of COX2 (unknown origin) assessed as reduction in PGF2alpha content using arachidonic acid as substrate preincubated for 10 mins followed by substrate addition and measured after 2 mins by enzyme immunoassay
# T2 sequence (P35354 whole entry): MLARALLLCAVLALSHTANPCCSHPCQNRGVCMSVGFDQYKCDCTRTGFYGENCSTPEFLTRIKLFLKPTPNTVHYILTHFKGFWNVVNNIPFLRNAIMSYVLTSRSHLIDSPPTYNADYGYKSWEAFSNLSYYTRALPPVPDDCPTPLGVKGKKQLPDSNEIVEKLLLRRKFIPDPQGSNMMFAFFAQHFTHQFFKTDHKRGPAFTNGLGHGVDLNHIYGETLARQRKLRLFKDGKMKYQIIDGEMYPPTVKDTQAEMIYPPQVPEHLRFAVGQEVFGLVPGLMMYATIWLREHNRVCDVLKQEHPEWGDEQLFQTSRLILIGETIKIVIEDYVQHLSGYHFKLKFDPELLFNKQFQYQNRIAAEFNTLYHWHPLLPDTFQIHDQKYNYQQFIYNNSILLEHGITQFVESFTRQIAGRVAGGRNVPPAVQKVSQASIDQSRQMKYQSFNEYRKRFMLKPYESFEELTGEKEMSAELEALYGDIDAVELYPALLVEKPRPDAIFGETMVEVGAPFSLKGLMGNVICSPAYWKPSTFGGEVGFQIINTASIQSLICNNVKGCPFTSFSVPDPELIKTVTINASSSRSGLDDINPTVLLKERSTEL
# [11] = tested on: Candida albicans; test: Antifungal activity against fluconazole-resistant Candida albicans CaR assessed as inhibition of fungal growth measured after 72 hrs by CLSI based liquid medium dilution method; assay type: functional
# [12] = tested on: Candida albicans; test: Induction of mitochondrial membrane depolarization in Candida albicans assessed as fungal cells with depolarized mitochondria measured after 24 hrs by JC-1 staining based flow cytometry (reference value: 3.22%); assay type: functional
# [13] = tested on: Candida albicans; test: Antifungal activity against Candida albicans ATCC SC5314 assessed as inhibition of fungal growth measured after 72 hrs by CLSI based liquid medium dilution method; assay type: functional
# [14] = Increase in intracellular ROS level in Cryptococcus neoformans assessed as fold increase in fluorescence intensity measured after 12 hrs by fluorescence microscopic analysis relative to control; assay type: functional
# [15] = tested on: Aspergillus fumigatus; test: Antifungal activity against Aspergillus fumigatus KM8001 assessed as inhibition of fungal growth measured after 72 hrs by CLSI based liquid medium dilution method; assay type: functional
# [16] = tested on: Candida albicans; test: Induction of mitochondrial membrane depolarization in Candida albicans assessed as fungal cells with intact mitochondria measured after 24 hrs by JC-1 staining based flow cytometry (reference value: 95.9%); assay type: functional
# [17] = tested on: Candida albicans; test: Induction of apoptosis in Candida albicans assessed as viable cells measured after 24 hrs by Annexin V-FITC/PI staining based flow cytometry (reference value: 95.7%); assay type: functional
# [18] = Drug uptake in Candida albicans ATCC SC5314 assessed as increase in red and green fluorescence intensity measured after 10 hrs by PI/Hoechst […] staining based fluorescence microscopy; assay type: ADME
# [19] = tested on: Cryptococcus neoformans; test: Antifungal activity against Cryptococcus neoformans assessed as inhibition of fungal growth measured after 72 hrs by CLSI based liquid medium dilution method; assay type: functional
# [20] = tested on: Candida albicans; test: Induction of apoptosis in Candida albicans assessed as late apoptotic cells measured after 24 hrs by Annexin V-FITC/PI staining based flow cytometry (reference value: 0.44%); assay type: functional
# [21] = biological target: T1, Lanosterol 14-alpha demethylase; test: Inhibition of CYP51 in Candida albicans ATCC SC5314 assessed as ergosterol content at 4 ug/ml measured after 48 hrs by GC-MS analysis (reference value: 95.61%); set-up: scale not given: the % may be the effect or the level left; conditions: at 4 µg/mL
# [22] = biological target: T1, Lanosterol 14-alpha demethylase; test: Inhibition of CYP51 in Candida albicans ATCC SC5314 assessed as unknown sterol content at 4 ug/ml measured after 48 hrs by GC-MS analysis; set-up: scale not given: the % may be the effect or the level left; conditions: at 4 µg/mL
# [23] = tested on: Pichia kudriavzevii; test: Antifungal activity against Candida krusei ATCC 6258 assessed as inhibition of fungal growth measured after 72 hrs by CLSI based liquid medium dilution method; assay type: functional
# [24] = tested on: Candida albicans; test: Antifungal activity against fluconazole-resistant Candida albicans 632 assessed as inhibition of fungal growth measured after 72 hrs by CLSI based liquid medium dilution method; assay type: functional
# [25] = tested on: Candida albicans; test: Antifungal activity against Candida albicans assessed as inhibition of fungal cell proliferation by measuring decrease in fungal cell density measured after 24 hrs; assay type: functional, organism-based
# [26] = tested on: Candida tropicalis; test: Antifungal activity against Candida tropicalis ATCC 1369 assessed as inhibition of fungal growth measured after 72 hrs by CLSI based liquid medium dilution method; assay type: functional
smiles,measurement,setting,value
C[C@H](C(=O)OC(Cn1ccnc1)c1ccc(F)cc1)c1ccc(-c2ccccc2)c(F)c1 (stereo partly specified),fold change (FC),[1],4
same,MIC50,[2],2 µg/mL
same,Activity,[3],32.7%
same,MIC50,[4],2 µg/mL
same,Activity,[5],0.086%
same,Activity,[6],39.58%
same,MIC50,[7],4 µg/mL
same,Activity,[8],33.52%
same,pIC50,[9],6.46
same,pIC50,[10],5.42
same,MIC50,[11],2 µg/mL
same,Activity,[12],52.9%
same,MIC50,[13],0.25 µg/mL
same,fold change (FC),[14],4
same,MIC50,[15],2 µg/mL
same,Activity,[16],46.6%
same,Activity,[17],66.2%
same,Drug uptake,[18],Active
same,MIC50,[19],0.5 µg/mL
same,Activity,[20],1.06%
same,Activity,[21],21.84%
same,Activity,[22],5.06%
same,MIC50,[23],0.125 µg/mL
same,MIC50,[24],4 µg/mL
same,Activity,[25],Active
same,MIC50,[26],0.25 µg/mL
